# Measured values taken from patent US20260223837A1, “NATURAL LIPID PARTICLE FORMULATIONS FOR AGRICULTURAL APPLICATIONS” (INVAIO SCIENCES, INC., priority 2023, published 2026).
# Key:
# Tomato Horn Worm (THW) = test: Tomato seedling root uptake assay followed by THW infestation; details: in vivo
# Experimental: Tomato seeds (N=14) were germinated and grown on a precut mesh (0.08″×0.025″ Opening; Mcmaster-Carr, Cat #1100T45) in 20 ml 0.5×MS media ([…] filtered without sucrose added) in a deep petri dish (100 mm×25 mm). The petri dishes were placed in a plastic container (236 Oz) with holes on both sides of the container and 100 ml MilliQ water to maintain high humidity. The plastic containers with plants were placed in a Percival incubator (25° C., 50% relative humidity).
# After 10 days, the mesh along with the seedlings on it was moved from the petri dish containing 0.5×MS media and excess media on mesh was dried by damping the roots on paper towels. The seedlings on the mesh were placed in a new deep petri dish containing formulation solution (20 ml) in the same large plastic container and Percival incubator. […] After 3 days, the mesh with seedlings was taken out of petri dish and the roots were washed with MilliQ water 2 times and placed on a paper towel to blot off excess water. […]
# Five THW larvae were placed on the tomato seedlings on mesh in each petri dish and the petri dish was placed in a large plastic container (101 Oz). The insect mortality was scored after 2 days, and the mortality was normalized against negative control (water treatment) to calculate the % larval control.
# fall army worms (FAW) = test: Corn seedling root application, fall army worm infestation; type: in vivo; details: for plant mass / fresh weight: in vivo; for FAW mortality: two days post-infestation
# Experimental: Two hundred corn seeds of the MBS Hybrid line are sterilized in 15% bleach sterilization solution by placing 50 seeds each in 4 separate 50 mL Falcon tubes and adding 25 mL sterilization solution into each tube. The tubes containing seeds are shaken on an orbital shaker at low speed for 15 min, after which the seeds are rinsed 3 times with sterile MilliQ water in the biological safety cabinet to ensure sterility. Six seeds are then selected from each tube and placed into CYG germination pouches (PhytoAB ca #CYG-38 LB) with 50 ml of sterile DI water. Seeds are allowed to germinate in the dark for 3 days at 25° C. and 60% relative humidity. After 3 days seedlings are moved to climate-controlled chambers with a light: dark cycle of 16:8 at 25° C. and 60% RH. At this time 25 ml of treatment solutions suspended in Hoagland's solution (Sigma-Alderich H2395-1L, 1.3 g/L, pH 6.5) are added to germination pouches. […] Seedlings are allowed to grow and uptake solution for 3 days before FAW infestation.
# Six-day-old plants are infested with non-diapausing FAW at a rate of two 2nd instar larvae per plant. […] Before infestation germination pouches are sealed to prevent FAW from making direct contact with nutrient and NLP solutions. FAW are then allowed to feed on plants for a duration of 2 days in a Percival incubator (25° C., 50% RH, 16:8 Light: dark cycle).
# FAW mortality is scored two days post-infestation by removing larvae from plants and probing 3 times. Larvae that are unresponsive to probing or not recovered are considered dead and the proportion of surviving larvae over initial infestation numbers are compared across treatments. Plant mass is also recorded by weighing individual seedlings after larvae are removed and average mass of seedlings are compared across treatments.
# WCRW [1] = test: Small scale (green house 10 inch pot) in-furrow assay and dose-response; type: in vivo, western corn rootworm (WCRW); details: 2 mg/ml DE, in-furrow 3 ml, day 28
# Experimental: Jumbo cotton balls were packed into the bottom of 10″ tall and 2.7″ diameter cylindrical containers. Wide straws were inserted for later use during the infestation process, then packed with ~660 g of silt loam soil. Soil was then watered with about 150 ml of water in three 50 ml increments 24 hrs before planting. A hole was made at a depth of 1.5 inch from the top of the soil. […] The particle size, PDI and zeta potential of these NLPs are similar to those prepared with 80 ug/ml of DE in the suspension (Table 8). The treatments were added around the edge of the hole for planting. A seed was then planted in the hole and covered with soil. Containers with seeds were then placed in the greenhouse to continue growing for 7 days until ready for infestation.
# 2nd instar WCRW larvae were shipped from the supplier (Crop Characteristic Inc., Farmington, MN USA) and stored at 10° C. until ready for use (less than a week). The 1st and 2nd infestations were conducted 7 and 14 days after seed planting, respectively. For each infestation, approximately 10 larvae were transferred to 0.5 ml microcentrifuge tube and released into soil via dropping the tube with the open mouth facing down into straws inserted when the pots were filled with soil. […]
# The fresh weight for each whole seedling was measured using a scale and recorded.
# [2] = test system: Colorado Potato Beetle (CPB); test: Tomato seedling root uptake assay followed by CPB infestation; details: 160 ug/ml in DCM
# WCRW [3] = test: Field-scale in-furrow treatment, open field trial (Example 53); type: in vivo, western corn rootworm (WCRW); details: 2 mg/ml
# [4] = UV stability assay of deltamethrin in NLPs; type: physicochemical
# Source text: In addition, the four NLP formulations were also mixed with lignosulfonate (Borresperse NA, Borregaard), a widely used UV absorption agent at 3% final concentration, ten samples were exposed to UV light, and ten represented control samples that were not exposed to UV light.
# For the samples to be exposed to UV exposure, the cap of the Eppendorf tube was removed, and a single layer of Saran wrap (SC Johnson) was pulled across the top and secured with a rubber band. For the control samples, the Eppendorf tube was capped and wrapped entirely in aluminum foil to completely block UV radiation.
# All samples were placed 15 cm below the UV light (Hortilux PowerVEG Full Spectrum with UV Bulb, Growershouse, Cat #901678) with the UV radiation intensity at round 150 milliwatts per square centimeter (mW/cm^2). For each treatment, two samples were analyzed by LC-MS at t=0 (immediately after preparation), at day 1, day 2, day 3, and day 6. For each timepoint two UV samples and 2 control samples were removed for analysis by LC-MS/MS. Prior to analysis, the samples were diluted to 1 ml with methanol in the original 2 mL Eppendorf tubes. A further 100× dilution was performed in methanol and the samples were transferred to HPLC vials for analysis by LC-MS.
# Fusarium oxysporum = test: Resazurin based Fusarium inhibition assay; type: cell-based; details: 24 hr incubation, compared to negative controls (DMSO)
# Experimental: The purpose of this assay was to quantify the effect of encapsulation of AZO, an antifungal agent, in NLP particles on its efficacy against a fungal pathogen (e.g., Fusarium oxysporum). Encapsulated AZO was compared to unencapsulated counterparts to determine if there is any change in efficacy. Formulations were tested in a 96-well plate and incubated with F. oxysporum conidia (spores) for 24 hr, after which resazurin dye was added. After 4 hr of incubation the color change of resazurin from blue to a fluorescent pink due to fungal respiration was assessed spectrophotometrically and the percent inhibition of respiration, as a measure of fungal growth, was determined by comparison to a conidia-only negative control. […] Fusarium oxysporum was cultured on 50% potato dextrose broth (PDB) agar plates. Using a pipette tip, a small mycelium aliquot was transferred to a 50-mL flask containing carboyxymethyl cellulose medium (CMC). […] Conidia were counted in the resuspended pellet using a hemocytometer, and diluted to 1×10^6 conidia/mL in 20% glycerol solution, from which a 1×10^5 conidia/mL working solution was prepared. […] After 24 h, 10 μL of PrestoBlue reagent was added to each well of the plate, followed by 4 h incubation, after which the fluorescence was read at 570/620 nm with a read height of 7 mm.
# whiteflies = test: Tomato seedling root treatment, whitefly exposure; type: in vivo; details: after 7 days
# Experimental: Tomato seeds (N=14) are germinated and grown on a precut mesh (0.08″×0.025″ Opening; Mcmaster-Carr, Cat #1100T45) in 20 ml ½ MS media ([…] filtered without sucrose added) in a deep petri dish (100 mm×25 mm). The petri dishes are placed in a large plastic container (Sistema; 236 Oz) with holes on both sides of the container and 100 ml MilliQ water to maintain high humidity. Large plastic containers are placed in a Percival incubator (25° C., 50% RH). After 10 days, the mesh along with the seedlings on it is moved from the petri dish containing half strength MS media, and excess media on mesh is dried by blotting the roots on paper towels. […] After 3 days, the mesh with seedlings is taken out of petri dish and the roots are washed with MilliQ water 2 times and placed on a paper towel to blot off excess water. The mesh with tomato seedlings is transferred to a new petri dish with 25 ml of 1% phytogel (P8169-1 KG, Sigma-Aldrich).
# From a whitefly infested plant in a rearing cage, leaves that are infested with about 200 white flies are excised using scissors and placed in a petri dish. The petri dish is placed at the base of the tomato plants on the phytagel taking care to not damage the tomato plant roots. The boxes with the tomato plant and the whiteflies are placed in an incubator with 16 h light/8 hr dark photoperiod, 26° C. and 50% humidity. […]
# tomato hornworm (THW) = test: Tomato seed priming, tomato hornworm infestation; type: in vivo; details: seed priming 24 hr
# Experimental: Tomato seeds are surface-sterilized by 1 ml 25% Bleach with 0.025% Triton X-100 in 1.5 ml centrifuge tube, then washed 3 times with 1 ml sterile water. Tomato seeds (N=50) are primed in 0.3 ml of below treatment solutions in a 1.5 ml centrifuge tube for 24 hr.
# The primed tomato seeds (N=14) are germinated and grown on a precut mesh (0.08″×0.025″ Opening; Mcmaster-Carr) in 20 ml half strength Murashige and Skoog Basal Medium (MP Bio, Cat #0926231—CF) in a deep petri dish (100 mm×25 mm). The petri dishes are placed in large plastic container (236 Oz) with holes on both sides of the container and 100 ml MilliQ water to maintain high humidity. The containers are placed in a Percival incubator (about 25° C., 50% relative humidity). After 10 days, the mesh along with the seedlings on it is moved from the petri dish containing half strength MS media and excess media on mesh is dried by damping the roots on paper towels. After 3 days, the mesh with seedlings is removed from the petri dish and the roots are washed twice with MilliQ water and placed on paper towel to blot off excess water. The mesh with tomato seedlings is transferred to a new petri dish with 25 ml of 1% Phytagel (P8169-1 KG, Sigma-Aldrich). […]
# The insect mortality is scored after 2 days, and the mortality is normalized against negative control (water treatment) to calculate the % larval control.
SMILES,phytotoxicity (Tomato Horn Worm (THW)),plant mass / fresh weight (fall army worms (FAW)),FAW mortality (fall army worms (FAW)),protection of whole plant mass and root mass from WCRW (WCRW [1]),phytotoxicity to tomato seedlings [2],root injury rating (0 to 3) (WCRW [3]),"Repeat 1 (deltamethrin concentration) ([4]; Repeat 1, initial concentration, LC-MS) [µg/mL]","Repeat 2 (deltamethrin concentration) ([4]; Repeat 2, initial concentration, LC-MS) [µg/mL]",deltamethrin retention rate (actual deltamethrin/input deltamethrin) ([4]; after 6 days of UV exposure (figure legend)) [%],"Initial deltamethrin Concentration ([4]; mean of Repeat 1 and 2, LC-MS at t=0, before UV exposure) [µg/mL]",minimum amount required for >90% inhibition of Fusarium (Fusarium oxysporum) [µg/mL],number of live whiteflies (whiteflies),insect mortality and stunting (tomato hornworm (THW))
CC1(C)[C@H](C(=O)O[C@H](C#N)c2cccc(Oc3ccccc3)c2)[C@@H]1C=C(Br)Br [Deltamethrin],phytotoxicity (wilting and chlorosis of plant tissue),fresh weight comparable to the water treated plants,none or very low mortality,less effective in protecting whole plant mass,caused phytotoxicity to the tomato seedlings,higher root damage than the NLP644 comprising deltamethrin at 2 mg/ml treatment,104,114,15,109,,,
CO/C=C(/C(=O)OC)c1ccccc1Oc1cc(Oc2ccccc2C#N)ncn1 [azoxystrobin],,,,,,,,,,,5,,
CN/C(=N\[N+](=O)[O-])NCc1cnc(Cl)s1 [clothianidin],,plant mass is the highest,FAW mortality is the highest,,,,,,,,,significantly lower,significantly higher mortality and stunting
